This passage reports melting point results from a melting point compilation (Tetko et al.; mined from patent text by program, amines drawn as free bases though some values may be those of a salt).

For orientation: melting point means the temperature, or range, at which the solid turns liquid. Consider `COc1n[nH]cc1-c1ccccc1`, for which the melting point was found to be 150 °C. Next, `O=C(Nc1ccccc1C(=O)O)C(=Cc1ccccc1)C(=O)Nc1ccccc1C(=O)O`: 247 to 249 °C. Next, `COC(c1cc(-c2ccc(F)cc2)c(-c2ccc(F)cc2)n1C)(C(F)(F)F)C(F)(F)F`: 108 to 110 °C; `CCOc1ccc(C(=O)C2CC=CCC2C(=O)O)cc1Cl` (stereo not given): 123 to 125 °C; `CNc1nc(C)c(-c2ccnc(Nc3ccc(CCO)cc3)n2)s1`: 216 to 218 °C. Next, `O=C1CCC(N2Cc3cc(CNC(=O)Nc4cc(C(F)(F)F)ccc4Cl)ccc3C2=O)C(=O)N1` (stereo not given): 240 to 242 °C; `CCOc1cc(C(C#N)N2C(=O)c3cccc(NC(C)=O)c3C2=O)ccc1OC` (stereo not given): 118 to 120 °C; `OCc1nc2cc(CN3CCN(C(c4ccccc4)c4ccccc4)CC3)ccc2[nH]1`: 137 °C. Turning to `COC(=O)/C=C(\CCCCc1ccccc1)Sc1ccc(OC)c(OC)c1`, the melting point was in the range of 53 to 55 °C.

Compound `CCc1csc2c(C(=O)O)c(=O)c3cc(F)c(N4CCNCC4)cc3n12` came in with a melting point of 247 to 251 °C. Take `Nc1nccc2oc(I)cc12`: the melting point fell in the range of 170 to 173 °C. In the case of `COc1ccc(OC)c(C(=O)/C=C/c2ccc3c(c2)OCO3)c1`, the melting point was 101 °C. As for `Nc1nc(N)nc(-c2ccc(OCc3ccc(Cl)cc3)cc2)n1`, the melting point is 246 to 248 °C. Next, `COc1ccc(C2=NN(CC(=O)Nc3ccc(C4=NNC(=O)CC4C)cc3)C(=O)C3CC=CCC23)cc1OC` (stereo not given): 139 to 141 °C; `O=C(Nc1ccc(O)cc1)c1c[nH]c2c1C(=O)CCCC2`: 178 to 179 °C; `CN(C)C(=O)C1Cc2cc(Cl)ccc2NC1=O` (stereo not given): 302 to 305 °C. Next, `O=C(CCCN1CCC2(CC(O)c3cc(F)ccc32)C1)c1ccc(F)cc1` (stereo not given): 143 to 145 °C. Next, `COc1cc(OC)c2ccccc2c1OC(C)=O`: 116 to 117 °C; `COCCNC(=O)C1CCC(Nc2ncc3ncnc(Nc4ccc(F)c(Cl)c4)c3n2)CC1` (stereo not given): 243 to 246 °C; `Cc1sc(C(F)(F)F)nc1O`: 108 to 110 °C.

In the case of `OC(c1ccccc1)(c1ccccn1)C1CCN(Cc2ccccc2)CC1` (stereo not given), the melting point fell in the range of 142 to 143 °C.

As for `Cc1nc2c(c(=O)[nH]1)-c1ccc(Cl)cc1C(c1ccccc1Cl)=NC2`, the melting point was in the range of 277 to 279 °C. Next, `CN(C)[C@H]1CC[C@H](Nc2ncc3ncnc(Nc4ccc(OCc5ccccc5)cc4)c3n2)CC1`: 155 °C; `CCOC(=O)c1cn(CC(F)(F)F)c2cc3c(cc2c1=O)OCO3`: 204 to 206 °C. Regarding `Cc1cc(-n2cnn(CCC3CC3)c2=O)sc1C(=O)NCc1cccnc1`, the melting point is 148 to 150 °C. Next, `NS(=O)(=O)c1cccc2c1ccc1nc(O)c(O)nc12`: 420 °C; `CCSc1cc(C)nc(SCC)c1NC(=O)CCCCCCSc1nc2ccccc2[nH]1`: 151 to 156 °C; `COc1cc(Nc2c(C#N)cnc3ccc(-c4csc(C=O)c4)cc23)c(Cl)cc1Cl`: 233 to 237 °C.

In turn, `Cc1ccc(C(=O)OCCOc2ccc(OC(F)(F)F)cc2)cc1` yielded a melting point of 76 to 77.5 °C.

`O=C1Cc2ccccc2Sc2cc(Cl)c(F)cc21` registered a melting point of 125 to 126 °C.

`Cn1c2c(ccc1=O)C(=O)CCC2` registered a melting point of 174 to 176 °C. Next, `CC(C)(C)OC(=O)N1CCC2(CC1)C(=O)N(CC(=O)O)CN2CC1CCCCC1`: 148 to 149 °C; `COc1ccc2c(c1)CC(N(C)CCCN1CCc3cc(OC)c(OC)cc3NC1=O)CC2` (stereo not given): 163 to 165 °C; `CCOC(=O)Cn1c(=O)c(=O)[nH]c2cc(Br)ccc21`: 282 to 283 °C.

`CCCN1CCC(C(=O)O)=Cc2cc(Br)ccc21` showed a melting point of 172 to 173 °C. Next, `O=C1CCC(N2Cc3c(OCc4ccc(CN5CCS(=O)CC5)cc4)cccc3C2=O)C(=O)N1` (stereo not given): 170 to 172 °C. Turning to `CCOC(=O)NC1=NN(c2cccc(Cl)c2)C(=O)C1C` (stereo not given), the melting point amounted to 162 °C.

In turn, `COC(=O)Nc1nc2cnc3cccnc3c2n1CC(C)C` registered a melting point of 195 to 197 °C. In the case of `CCOCc1ncc[nH]1`, the melting point fell in the range of 205 to 206 °C. Next, `NS(=O)(=O)c1cccc(-c2cc(-c3nc(-c4ccc(C(F)(F)F)nc4)cc(C(F)(F)F)n3)ccn2)c1`: 258 °C; `COc1ccc(-c2c(C(=O)c3ccccc3)c(CBr)nc3cc(OC)c(OC)cc23)cc1OC`: 182 to 183 °C. Next, `O=C(O)C=Cc1cc(N2CCNCC2)ccc1[N+](=O)[O-]`: 229 to 237 °C; `CC1(C)Oc2ccc(-c3c(N)c(=O)c3=O)cc2[C@@H](N2Cc3ccccc3C2=O)[C@@H]1O` (relative stereo): above 250 °C.

Regarding `N#Cc1ccc(-c2c3c(cc4ccc(O)cc24)-c2ccc(O)cc2CO3)cc1`, the melting point was above 250 °C. Next, `COc1cccc(-c2nc(-c3ccccc3)c3ncc(Cl)cc3n2)c1`: 112 to 113 °C; `COc1ccc(C(C#N)C2(O)CCCCC2)cc1` (stereo not given): 125 to 127 °C; `CCCCCCCCOc1ccc2c(OC(C)=O)c3cc4ccccc4cc3c(OC(C)=O)c2c1`: 107 to 111 °C. Next, `O=C(O)[C@@H]1C[C@H]2C[C@H](CCS(=O)(=O)O)CC[C@H]2CN1` (racemic): 265 °C; `CN(Cc1ccc(S(C)(=O)=O)cc1)S(=O)(=O)c1cn(S(=O)(=O)N(C)C)c(C#N)n1`: 169 to 172 °C; `COCC(C#N)=Cc1ccc(OC)c(OC)c1`: 82 to 83 °C.

`Cc1cc2ncnn2nc1OCC(CS(N)(=O)=O)C(C)C` (stereo not given) gave a melting point of 196 to 197 °C. Next, `Cn1nc(-c2cccc(F)c2)n(C)c1=S`: 126 to 128 °C.

`CCOCc1nc2c(N)nc3ccccc3c2n1CCN1C(C)=NOC12CCCC2`: the melting point lay within 211 to 213 °C. The compound `O=C(CCCCCn1ccnn1)NC[C@@H]1CN2C(=O)C[C@H]2O1` (racemic) displayed a melting point of 108 to 109 °C. Consider `NC(=O)C1CCc2ccccc21` (stereo not given), for which the melting point was 151 to 154 °C. `O=c1cc(Sc2ccc(O)cc2)oc2cc(O)cc(O)c12` showed a melting point of 249 to 251 °C. Next, `O=C(O)Cc1ccc(OCc2ccccc2)cc1[N+](=O)[O-]`: 145 to 152 °C; `O=C(NCCc1c[nH]cn1)c1[nH]c2ccc(Cl)cc2c1S(=O)(=O)c1ccccc1`: 220 to 222 °C; `CCOC(=O)C1CC(O)c2c(C)c(O)c(C)c(C)c2O1` (stereo not given): 138 to 144 °C. `COc1ccc(OC)c(Sc2ncccc2C(=O)NCC23CC4CC(CC(C4)C2)C3)c1`: the melting point fell in the range of 135 to 136 °C. Next, `CCCNc1nc(N)n[nH]1`: 148 to 149 °C. `COc1ccc(-c2nc(-c3cccn3CC(=O)OCC(C)C)sc2-c2ccc(OC)cc2)cc1` showed a melting point of 106 to 108 °C. Next, `CON1CCCNC1=C[N+](=O)[O-]`: 84 to 85 °C; `O=S(=O)(Nc1cccc(CCOCc2csc(-c3ccc(F)c(Cl)c3)n2)c1)C(F)(F)F`: 141 to 143 °C.

Consider `O=C(Nc1ccccc1S(=O)(=O)N1CCCCC1)N[C@@H](Cc1ccc(NC(=O)c2c(Cl)cncc2Cl)cc1)C(=O)O`, for which the melting point worked out at 223 °C.

Take `CCC(O)(CCCCO)C(=O)Nc1ccnc(Br)c1` (stereo not given): the melting point turned out to be 103 °C. Next, `O=C1NC(=O)C(Cc2ccc(C(=O)CCCc3ccccc3)cc2)S1` (stereo not given): 120 to 122 °C. Consider `CC1CN(c2cccc(F)c2)N=C1N` (stereo not given), for which the melting point lay in the range of 78 to 80 °C. Next, `Clc1ccc2c3c(cnc2c1)OC1(C=N3)CCCCC1`: 216 to 218 °C; `Cc1cc(=S)c(OCC(=O)O)co1`: 120 to 125 °C. Next, `Cc1c(CC(=O)O)c2cc(O)ccc2n1C(=O)c1cccc(Cl)c1`: 158 to 160 °C; `O=C(Nc1cc(-c2nc(-c3ccco3)no2)ccc1Cl)Oc1ccccc1`: 177 to 178 °C. Compound `CCCCNC(=O)Oc1cccc(NC(=O)CC(C)=O)c1` gave a melting point of 112 °C. Next, `COC(=O)c1ccccc1-c1ccc(CNc2nc(Cl)nc3ccsc23)cc1`: 177 to 182 °C; `COc1cc(N)c(Cl)cc1C(=O)N[C@H]1CCN(CCCC(=O)c2cccnc2)C[C@H]1OC` (relative stereo): 166 °C; `N=C(Cc1ccccc1)Nc1ncccc1OCc1ccccc1Br`: 158 to 169 °C.

On to `COC(=O)c1c(OC)nc2ccc(Cl)cc2c1-c1ccccc1Cl`, for which the melting point was in the range of 151 to 152 °C.

On to `NC1=NN(c2cccc(F)c2)CC1`, for which the melting point is 146 to 147 °C.

In the case of `Cc1cc(N2CCc3ncccc3C2)nc(N2CCC(F)(F)CC2)c1[N+](=O)[O-]`, the melting point fell in the range of 168 to 169 °C. Next, `NS(=O)(=O)NC(=O)CNC(=O)NCCCCC1CCSS1` (stereo not given): 143 to 145 °C; `COC(=O)c1[nH]c2c(C)ccc(Cl)c2c1C`: 122 to 123 °C; `CC(Sc1cc(C(C)(C)C)c(O)c(C(C)(C)C)c1)C(=O)CC(C)(O)C(C)Sc1cc(C(C)(C)C)c(O)c(C(C)(C)C)c1` (stereo not given): 123 to 128 °C. Next, `COc1cc(-c2ccnc(Nc3cccc(OC(F)(F)C(F)F)c3)n2)cc(OC)c1OC`: 132 °C; `COc1c(S(N)(=O)=O)cc(C(=O)O)c2c1OCCO2`: 247 to 248 °C.

As to `O=C(O)CCN1CCN(c2ccccc2)CC1`, the melting point fell in the range of 213 to 215 °C. Next, `CCn1cc(CC(=O)O)c(OCCCc2ccc(OCOC)cc2Oc2ccc(C(F)(F)F)cn2)n1`: 82 to 83 °C. Next, `O=C(O)c1cc(Oc2ncc(C(F)(F)F)cc2Cl)ccc1[N+](=O)[O-]`: 131 °C; `CC(O)=C(C#N)C(=O)c1ccc(F)cc1`: 65 to 67 °C; `CC(O)C#Cc1cc(Cl)cc2nc(-c3ccccc3Cl)oc12` (stereo not given): 129 to 131 °C. Next, `NC(=O)c1ccc(NC(=O)C(CS)Cc2ccccc2)cc1` (stereo not given): 195 to 197 °C.
